Measurements taken from ChEMBL document CHEMBL4417631, “Oral peptide inhibitors of interleukin-23 receptor and their use to treat inflammatory bowel diseases” (2017).

Assays:
[1] = Inhibition of interleukin-23 binding to rat interleukin-23 receptor incubated for 2 hrs by competitive binding ELISA
[2] = Half life in simulated intestinal fluid at 20 uM by LC-MS/MS analysis; format: ADME
[3] = Half life in simulated gastric fluid at 20 uM by LC-MS/MS analysis; format: ADME
Interleukin-23 receptor [4] = target: T1, Interleukin-23 receptor (Homo sapiens, UniProt Q5VWK5); assay: Inhibition of interleukin-23 receptor in human natural killer cells assessed as reduction in IL23/IL18-induced IFNgamma production incubated for 20 to 24 hrs by ELISA; format: cell-based
T1 sequence (Q5VWK5 whole entry): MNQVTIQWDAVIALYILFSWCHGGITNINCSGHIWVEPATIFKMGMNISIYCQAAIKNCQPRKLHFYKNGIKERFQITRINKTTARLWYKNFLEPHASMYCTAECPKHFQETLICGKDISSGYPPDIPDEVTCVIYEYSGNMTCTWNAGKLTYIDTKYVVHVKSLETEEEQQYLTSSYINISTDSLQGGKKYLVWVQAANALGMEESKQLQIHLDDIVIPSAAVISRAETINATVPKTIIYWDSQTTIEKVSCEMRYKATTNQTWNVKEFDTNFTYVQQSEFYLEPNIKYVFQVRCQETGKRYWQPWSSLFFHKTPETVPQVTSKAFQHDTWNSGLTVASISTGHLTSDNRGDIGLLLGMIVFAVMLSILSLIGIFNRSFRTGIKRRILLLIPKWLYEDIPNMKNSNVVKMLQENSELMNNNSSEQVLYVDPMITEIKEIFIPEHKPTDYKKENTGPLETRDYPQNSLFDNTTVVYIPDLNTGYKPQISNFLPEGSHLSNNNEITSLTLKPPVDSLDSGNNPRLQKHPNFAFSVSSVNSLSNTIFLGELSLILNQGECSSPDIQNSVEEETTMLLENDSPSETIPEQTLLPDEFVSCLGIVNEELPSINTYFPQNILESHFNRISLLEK

Interleukin-23 receptor [5] = target: T1, Interleukin-23 receptor; assay: Inhibition of interleukin-23 binding to human interleukin-23 receptor incubated for 2 hrs by competitive binding ELISA
Interleukin-23 receptor [6] = target: T1, Interleukin-23 receptor; assay: Inhibition of interleukin-23 receptor in human DB cells assessed as reduction in IL-23-stimulated STAT3 phosphorylation incubated for 30 mins by HTRF assay; format: cell-based

| IC50 [1] [nM] | half-life at 20 µM [2] [h] | half-life at 20 µM [3] [h] | IC50 (Interleukin-23 receptor [5]) [nM] | IC50 (Interleukin-23 receptor [6]) [nM] | SMILES | IC50 (Interleukin-23 receptor [4]) [nM] |
| --- | --- | --- | --- | --- | --- | --- |
| 25 to 100 | – | – | – | < 10 | CC(=O)NCCCC[C@H](NC(=O)[C@](C)(CCCCN)NC(=O)[C@H](Cc1ccc2ccccc2c1)NC(=O)[C@H](Cc1ccc(C(N)=O)cc1)NC(=O)[C@@H](NC(=O)[C@H](CCC(N)=O)NC(=O)[C@H](Cc1c[nH]c2ccccc12)NC(=O)[C@@H](NC(=O)[C@H](CCC(N)=O)NC(=O)[C@@H](NC(C)=O)C(C)(C)S)[C@@H](C)O)C(C)(C)S)C(=O)N[C@@H](CC(N)=O)C(=O)N[C@@H](CC(N)=O)C(N)=O | < 10 |
| – | – | – | – | < 10 | COc1ccc(C[C@H](NC(=O)[C@@H](NC(=O)[C@H](CCC(N)=O)NC(=O)[C@H](Cc2c[nH]c3ccccc23)NC(=O)[C@@H](NC(=O)[C@H](CCC(N)=O)NC(=O)[C@@H](NC(C)=O)C(C)(C)S)[C@@H](C)O)C(C)(C)S)C(=O)N[C@@H](Cc2ccc3ccccc3c2)C(=O)N[C@@](C)(CCCCN)C(=O)N[C@@H](CCCCNC(C)=O)C(=O)N[C@@H](CC(N)=O)C(=O)N[C@@H](CC(N)=O)C(N)=O)cc1 | < 10 |
| 10 to 25 | > 6 | 3 to 6 | – | < 10 | CC(=O)NCCCC[C@H](NC(=O)[C@@](C)(NC(=O)[C@H](Cc1ccc2ccccc2c1)NC(=O)[C@H](Cc1ccc(C(N)=O)cc1)NC(=O)[C@@H](NC(=O)[C@H](CCC(N)=O)NC(=O)[C@H](Cc1c[nH]c2ccccc12)NC(=O)[C@@H](NC(=O)[C@H](CCC(N)=O)NC(=O)[C@@H](NC(C)=O)C(C)(C)S)[C@@H](C)O)C(C)(C)S)C(C)C)C(=O)N[C@@H](CC(N)=O)C(=O)N[C@@H](CC(N)=O)C(N)=O | 10 to 25 |
| < 10 | > 6 | > 6 | < 10 | < 10 | CC(=O)N[C@H](C(=O)N[C@@H](CCC(N)=O)C(=O)N[C@H](C(=O)N[C@@H](Cc1c[nH]c2ccccc12)C(=O)N[C@@H](CCC(N)=O)C(=O)N[C@H](C(=O)N[C@@H](Cc1ccc(OCCN)cc1)C(=O)N[C@@H](Cc1ccc2ccccc2c1)C(=O)N[C@@](C)(CC(C)C)C(=O)N[C@@H](CCC(N)=O)C(=O)N[C@@H](CC(N)=O)C(=O)N[C@@H](CC(N)=O)C(N)=O)C(C)(C)S)[C@@H](C)O)C(C)(C)S | – |

More lines, now with the values behind:

| SMILES | IC50 [1] [nM] | half-life at 20 µM [2] [h] | half-life at 20 µM [3] [h] | IC50 (Interleukin-23 receptor [5]) [nM] | IC50 (Interleukin-23 receptor [6]) [nM] | IC50 (Interleukin-23 receptor [4]) [nM] |
| --- | --- | --- | --- | --- | --- | --- |
| CC(=O)NCCCC[C@H](NC(=O)[C@](C)(CCCCNC(C)=O)NC(=O)[C@H](Cc1ccc2ccccc2c1)NC(=O)[C@H](Cc1ccc(OCCNC(C)=O)cc1)NC(=O)[C@@H]1CSCC[C@H](NC(C)=O)C(=O)N[C@@H](CCC(N)=O)C(=O)N[C@@H]([C@@H](C)O)C(=O)N[C@@H](Cc2c[nH]c3ccccc23)C(=O)N[C@@H](CCC(N)=O)C(=O)N1)C(=O)N[C@@H](CC(N)=O)C(=O)NCC(N)=O | < 10 | 3 to 6 | < 1 | < 10 | < 10 | < 25 |
| CC(=O)N[C@H]1CCSC[C@@H](C(=O)N[C@@H](Cc2ccc(O)cc2)C(=O)N[C@@H](Cc2ccc3ccccc3c2)C(=O)N[C@@](C)(CC(C)C)C(=O)N[C@@H](CCC(=O)O)C(=O)N[C@@H](CC(N)=O)C(=O)NCC(N)=O)NC(=O)[C@H](CCC(N)=O)NC(=O)[C@H](Cc2c[nH]c3ccccc23)NC(=O)[C@H]([C@@H](C)O)NC(=O)[C@H](CCC(N)=O)NC1=O | 10 to 25 | < 1 | – | 10 to 25 | < 10 | < 25 |
| CC(=O)NCCCC[C@H](NC(=O)C(C)(C)NC(=O)[C@H](Cc1ccc2ccccc2c1)NC(=O)[C@H](Cc1ccc(OCCN)cc1)NC(=O)[C@@H](NC(=O)[C@H](CCC(N)=O)NC(=O)[C@H](Cc1c[nH]c2ccccc12)NC(=O)[C@@H](NC(=O)[C@H](CC(N)=O)NC(=O)[C@@H](NC(C)=O)C(C)(C)S)[C@@H](C)O)C(C)(C)S)C(=O)N[C@@H](CC(N)=O)C(=O)NCCC(N)=O | 10 to 25 | > 6 | > 6 | – | < 10 | < 10 |
| COc1ccc(C[C@H](NC(=O)[C@@H](NC(=O)[C@H](CCC(N)=O)NC(=O)[C@H](Cc2c[nH]c3ccccc23)NC(=O)[C@@H](NC(=O)[C@H](CC(N)=O)NC(=O)[C@@H](NC(=O)[C@@H](Cc2ccccc2)NC(C)=O)C(C)(C)S)[C@@H](C)O)C(C)(C)S)C(=O)N[C@@H](Cc2ccc3ccccc3c2)C(=O)NC2(C(=O)N[C@@H](CCCNC(N)=O)C(=O)N[C@@H](CC(N)=O)C(=O)N[C@@H](CC(N)=O)C(N)=O)CCOCC2)cc1 | – | – | – | – | – | < 10 |
| COc1ccc(C[C@H](NC(=O)[C@H](Cc2ccc(OCCN)cc2)NC(=O)[C@@H]2CSCC[C@H](NC(C)=O)C(=O)N[C@@H](CCC(N)=O)C(=O)N[C@@H]([C@@H](C)O)C(=O)N[C@@H](Cc3c[nH]c4ccccc34)C(=O)N[C@@H](CCC(N)=O)C(=O)N2)C(=O)N[C@@](C)(CCCCN)C(=O)N[C@@H](CCCCNC(C)=O)C(=O)N[C@@H](CC(N)=O)C(=O)NCC(N)=O)cc1OC | 25 to 100 | – | – | 10 to 25 | < 10 | < 25 |
| COc1ccc(C[C@H](NC(=O)[C@@H](NC(=O)[C@H](CCC(N)=O)NC(=O)[C@H](Cc2c[nH]c3ccccc23)NC(=O)[C@@H](NC(=O)[C@H](CC(N)=O)NC(=O)[C@@H](NC(=O)[C@@H](Cc2ccccc2)NC(C)=O)C(C)(C)S)[C@@H](C)O)C(C)(C)S)C(=O)N[C@@H](Cc2ccc3ccccc3c2)C(=O)NC2(C(=O)N[C@@H](CCCNC(N)=O)C(=O)N[C@@H](CC(N)=O)C(=O)N[C@@H](CC(N)=O)C(N)=O)CCCCC2)cc1 | – | – | – | – | – | < 10 |
| CC(=O)N[C@H]1CCSC[C@@H](C(=O)N[C@@H](Cc2ccc(OCCN)cc2)C(=O)N[C@@H](Cc2ccc3ccccc3c2)C(=O)NC2(C(=O)N[C@@H](CCC(=O)O)C(=O)N[C@@H](CC(N)=O)C(=O)N[C@@H](CC(N)=O)C(N)=O)CCC2)NC(=O)[C@H](CCC(N)=O)NC(=O)[C@H](Cc2c[nH]c3ccccc23)NC(=O)[C@H]([C@@H](C)O)NC(=O)[C@H](CCC(N)=O)NC1=O | < 10 | < 1 | 1 to 2 | – | < 10 | < 25 |
| COc1ccc(C[C@H](NC(=O)[C@@H]2CSCC[C@H](NC(C)=O)C(=O)N[C@@H](CCC(N)=O)C(=O)N[C@@H]([C@@H](C)O)C(=O)N[C@@H](Cc3c[nH]c4ccccc34)C(=O)N[C@@H](CCC(N)=O)C(=O)N2)C(=O)N[C@@H](Cc2ccc3ccccc3c2)C(=O)N[C@@](C)(CCCCNC(=O)COCC(=O)NCCCC[C@](C)(NC(=O)[C@H](Cc2ccc3ccccc3c2)NC(=O)[C@H](Cc2ccc(OC)cc2)NC(=O)[C@@H]2CSCC[C@H](NC(C)=O)C(=O)N[C@@H](CCC(N)=O)C(=O)N[C@@H]([C@@H](C)O)C(=O)N[C@@H](Cc3c[nH]c4ccccc34)C(=O)N[C@@H](CCC(N)=O)C(=O)N2)C(=O)N[C@@H](CCC(=O)O)C(=O)N[C@@H](CC(N)=O)C(=O)NCC(N)=O)C(=O)N[C@@H](CCC(=O)O)C(=O)N[C@@H](CC(N)=O)C(=O)NCC(N)=O)cc1 | 10 to 25 | – | – | < 10 | < 10 | < 25 |
| CC(=O)NCCCC[C@H](NC(=O)C(C)(C)NC(=O)[C@H](Cc1ccc2ccccc2c1)NC(=O)[C@H](Cc1ccc(C(N)=O)cc1)NC(=O)[C@@H](NC(=O)[C@H](CCC(N)=O)NC(=O)[C@H](Cc1c[nH]c2ccccc12)NC(=O)[C@@H](NC(=O)[C@H](CC(N)=O)NC(=O)[C@@H](NC(C)=O)C(C)(C)S)[C@@H](C)O)C(C)(C)S)C(=O)N[C@@H](CC(N)=O)C(=O)N[C@@H](CC(N)=O)C(N)=O | – | 1 to 2 | 3 to 6 | – | – | < 10 |
